Test results as given in PubChem BioAssay AID1963982 (Molecular Pharmacology Branch, DTP, NCI, 2024).

Test system: 313798-341-R-J2-PDC spheroids, viability
Test: Anticancer human tumor 313798-341-R-J2-PDC patient-derived cervical squamous cell carcinoma cell line growth inhibition [PI3K]
Conditions: spheroids with HUVEC and MSC; for IC50: curve of first compound; for viability, T/C: stronger effect = lower value
Method in brief: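 We assembled tumor spheroids that included a stromal compartment of HUVEC and MSCs, then exposed them to targeted agents alone and together with PI3K pathway inhibitors. Concentration series descended by half-log from clinically achievable Cmax levels. Viability served as the endpoint.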

[1] = second compound 0.00316 µM, first compound 0.0316 µM
[2] = second compound 0.00316 µM, first compound 0.1 µM
[3] = second compound 0.00316 µM, first compound 0.316 µM
[4] = second compound 0.00316 µM, first compound 1 µM
[5] = second compound 0.00316 µM, first compound 3.16 µM
[6] = second compound 0.00316 µM, first compound 10 µM
[7] = second compound 0.01 µM, first compound 0.0316 µM
[8] = second compound 0.01 µM, first compound 0.1 µM
[9] = second compound 0.01 µM, first compound 0.316 µM
[10] = second compound 0.01 µM, first compound 1 µM
[11] = second compound 0.01 µM, first compound 3.16 µM
[12] = second compound 0.01 µM, first compound 10 µM
[13] = second compound 0.0316 µM, first compound 0.0316 µM
[14] = second compound 0.0316 µM, first compound 0.1 µM
[15] = second compound 0.0316 µM, first compound 0.316 µM
[16] = second compound 0.0316 µM, first compound 1 µM
[17] = second compound 0.0316 µM, first compound 3.16 µM
[18] = second compound 0.0316 µM, first compound 10 µM
[19] = second compound 0.1 µM, first compound 0.0316 µM
[20] = second compound 0.1 µM, first compound 0.1 µM
[21] = second compound 0.1 µM, first compound 0.316 µM
[22] = second compound 0.1 µM, first compound 1 µM
[23] = second compound 0.1 µM, first compound 3.16 µM
[24] = second compound 0.1 µM, first compound 10 µM
[25] = second compound 0.316 µM, first compound 0.0316 µM
[26] = second compound 0.316 µM, first compound 0.1 µM
[27] = second compound 0.316 µM, first compound 0.316 µM
[28] = second compound 0.316 µM, first compound 1 µM
[29] = second compound 0.316 µM, first compound 3.16 µM
[30] = second compound 0.316 µM, first compound 10 µM
[31] = second compound 1 µM, first compound 0.0316 µM
[32] = second compound 1 µM, first compound 0.1 µM
[33] = second compound 1 µM, first compound 0.316 µM
[34] = second compound 1 µM, first compound 1 µM
[35] = second compound 1 µM, first compound 3.16 µM
[36] = second compound 1 µM, first compound 10 µM
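Also: spheroids exposed to compounds for seven days.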
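For viability, T/C in this document: 100% = DMSO vehicle control viability.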

Structure (SMILES): C=CC(=O)N1CCN(c2nc(=O)n(-c3c(C)ccnc3C(C)C)c3nc(-c4c(O)cccc4F)c(F)cc23)C(C)C1 (stereo unspecified) + CC(Nc1ccc2c(c1)OCCn1cc(N3C(=O)OCC3C(F)F)nc1-2)C(N)=O
- IC50 (second compound 0.00316 µM): > 10 µM
- IC50 (second compound 0.01 µM): > 10 µM
- IC50 (second compound 0.0316 µM): > 10 µM
- IC50 (second compound 0.1 µM): > 10 µM
- IC50 (second compound 0.316 µM): > 10 µM
- IC50 (second compound 1 µM): > 10 µM
- viability, T/C [1]: 111%
- viability, T/C [2]: 92.3%
- viability, T/C [3]: 97.2%
- viability, T/C [4]: 96%
- viability, T/C [5]: 105%
- viability, T/C [6]: 98.7%
- viability, T/C [7]: 98.3%
- viability, T/C [8]: 102%
- viability, T/C [9]: 97.8%
- viability, T/C [10]: 95.2%
- viability, T/C [11]: 102%
- viability, T/C [12]: 97.7%
- viability, T/C [13]: 110%
- viability, T/C [14]: 97.1%
- viability, T/C [15]: 104%
- viability, T/C [16]: 96.9%
- viability, T/C [17]: 106%
- viability, T/C [18]: 102%
- viability, T/C [19]: 104%
- viability, T/C [20]: 95.3%
- viability, T/C [21]: 102%
- viability, T/C [22]: 101%
- viability, T/C [23]: 118%
- viability, T/C [24]: 100%
- viability, T/C [25]: 83.7%
- viability, T/C [26]: 85.8%
- viability, T/C [27]: 86.8%
- viability, T/C [28]: 96.7%
- viability, T/C [29]: 87.5%
- viability, T/C [30]: 70%
- viability, T/C [31]: 55.2%
- viability, T/C [32]: 59.5%
- viability, T/C [33]: 54.8%
- viability, T/C [34]: 56.4%
- viability, T/C [35]: 66.7%
- viability, T/C [36]: 56.2%

Structure (SMILES): CC(Cn1ccc(-c2ccc(C#N)c(Cl)c2)n1)NC(=O)c1cc(C(C)O)[nH]n1 (stereo unspecified) + CC(Nc1ccc2c(c1)OCCn1cc(N3C(=O)OCC3C(F)F)nc1-2)C(N)=O
- IC50 (second compound 0.00316 µM): > 10 µM
- IC50 (second compound 0.01 µM): > 10 µM
- IC50 (second compound 0.0316 µM): > 10 µM
- IC50 (second compound 0.1 µM): > 10 µM
- IC50 (second compound 0.316 µM): > 10 µM
- IC50 (second compound 1 µM): 4.5 µM
- viability, T/C [1]: 102%
- viability, T/C [2]: 107%
- viability, T/C [3]: 98.3%
- viability, T/C [4]: 101%
- viability, T/C [5]: 105%
- viability, T/C [6]: 99.8%
- viability, T/C [7]: 106%
- viability, T/C [8]: 103%
- viability, T/C [9]: 109%
- viability, T/C [10]: 103%
- viability, T/C [11]: 100%
- viability, T/C [12]: 89.1%
- viability, T/C [13]: 122%
- viability, T/C [14]: 111%
- viability, T/C [15]: 106%
- viability, T/C [16]: 113%
- viability, T/C [17]: 96.7%
- viability, T/C [18]: 97.2%
- viability, T/C [19]: 109%
- viability, T/C [20]: 107%
- viability, T/C [21]: 102%
- viability, T/C [22]: 117%
- viability, T/C [23]: 99.1%
- viability, T/C [24]: 82.3%
- viability, T/C [25]: 86.7%
- viability, T/C [26]: 86.3%
- viability, T/C [27]: 78.8%
- viability, T/C [28]: 84.5%
- viability, T/C [29]: 79.9%
- viability, T/C [30]: 60.8%
- viability, T/C [31]: 64.8%
- viability, T/C [32]: 55.5%
- viability, T/C [33]: 63.7%
- viability, T/C [34]: 58.6%
- viability, T/C [35]: 54.2%
- viability, T/C [36]: 40.5%

Structure (SMILES): Cn1nccc1Nc1nccc(-c2ccn(C(CO)c3ccc(Cl)c(F)c3)c(=O)c2)n1 (stereo unspecified) + CC(Nc1ccc2c(c1)OCCn1cc(N3C(=O)OCC3C(F)F)nc1-2)C(N)=O
- IC50 (second compound 0.00316 µM): > 10 µM
- IC50 (second compound 0.01 µM): > 10 µM
- IC50 (second compound 0.0316 µM): > 10 µM
- IC50 (second compound 0.1 µM): > 10 µM
- IC50 (second compound 0.316 µM): > 10 µM
- IC50 (second compound 1 µM): 0.219 µM
- viability, T/C [1]: 98.2%
- viability, T/C [2]: 96%
- viability, T/C [3]: 90.5%
- viability, T/C [4]: 97.2%
- viability, T/C [5]: 103%
- viability, T/C [6]: 100%
- viability, T/C [7]: 98.7%
- viability, T/C [8]: 97.9%
- viability, T/C [9]: 87.9%
- viability, T/C [10]: 111%
- viability, T/C [11]: 121%
- viability, T/C [12]: 102%
- viability, T/C [13]: 109%
- viability, T/C [14]: 98.6%
- viability, T/C [15]: 102%
- viability, T/C [16]: 112%
- viability, T/C [17]: 115%
- viability, T/C [18]: 99.5%
- viability, T/C [19]: 98%
- viability, T/C [20]: 95%
- viability, T/C [21]: 93.6%
- viability, T/C [22]: 94.8%
- viability, T/C [23]: 89.4%
- viability, T/C [24]: 80.2%
- viability, T/C [25]: 77%
- viability, T/C [26]: 66.4%
- viability, T/C [27]: 65.7%
- viability, T/C [28]: 58.5%
- viability, T/C [29]: 66.8%
- viability, T/C [30]: 51.6%
- viability, T/C [31]: 59%
- viability, T/C [32]: 46.1%
- viability, T/C [33]: 46.8%
- viability, T/C [34]: 46.5%
- viability, T/C [35]: 52.7%
- viability, T/C [36]: 34.9%
